# Literature values as cited in US7608126B1, “Method for horticulture plant rejuvenation” (priority 2006, dated 2009).
smiles,measurement,value
"C[C@]12CC[C@H](O)CC1=CC[C@@H]1[C@@H]2CC[C@]2(C)C(=O)CC[C@@H]12 [DHEA, dehydroepiandrosterone]",solubility in water,not very soluble in water
